The target of this test is T1, soluble human BACE (Homo sapiens, UniProt P56817).
T1 construct: cells secreting human recombinant soluble BACE; made in house; concentrated conditioned medium, crude or purified
The test can be described thus: Inhibition of BACE: beta-secretase cleavage of synthetic biotinylated APP substrate, ELISA readout. The test is classed as biochemical. Conditions: 3 μM substrate, 0.05M sodium acetate (pH 4.5), 2% DMSO, 1 hour at 37° C., ELISA absorbance at 450 nm. Here is the method:
The substrate and test compounds are added to 384 well polypropylene plates. The reaction is initiated by the addition of soluble BACE enzyme to a final volume of 12.5 μL per well. […] Concentrated conditioned media from cells secreting human recombinant soluble BACE was titrated to provide a source of BACE enzyme. The cell media can be used as either a crude BACE prep or BACE can be purified using any number of techniques, including immobilized BACE inhibitor purification columns. The assay mixture is incubated for 1 hour at 37° C., and the reaction is quenched by the addition of an equal volume of 0.1M Tris, pH 8. Half of the quenched mix is incubated on clear streptavidin coated 384 well polystyrene plates for 1 hour. […] The readout, following assay development with TMB substrate and quenching with 0.09M sulfuric acid, is absorbance at 450 nm.
In general terms: ELISA stands for enzyme-linked immunosorbent assay.

pIC50: −log10 of the molar value.

Consider 2 molecules from US20110046160A1, “Novel Class of Spiro Piperidines for the Treatment of Neurodegenerative Diseases” (Pfizer, Inc., priority 2008, published 2011).

T1 sequence (P56817 46-457 limits assumed): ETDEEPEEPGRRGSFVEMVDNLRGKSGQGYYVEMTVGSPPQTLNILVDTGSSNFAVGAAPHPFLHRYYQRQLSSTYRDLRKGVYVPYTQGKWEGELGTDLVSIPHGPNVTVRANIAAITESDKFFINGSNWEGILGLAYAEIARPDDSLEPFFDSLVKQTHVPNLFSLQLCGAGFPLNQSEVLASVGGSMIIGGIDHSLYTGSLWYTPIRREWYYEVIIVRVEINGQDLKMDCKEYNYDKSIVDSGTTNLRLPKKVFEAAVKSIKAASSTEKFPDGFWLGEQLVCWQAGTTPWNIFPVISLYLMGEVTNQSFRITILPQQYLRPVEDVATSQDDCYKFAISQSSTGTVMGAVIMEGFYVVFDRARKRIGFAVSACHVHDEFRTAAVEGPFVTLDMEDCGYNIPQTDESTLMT

In the case of `Cc1ccncc1-c1cccc(CN2CC[C@]3(CNS(=O)(=O)N3c3cccc(F)c3)C[C@@H]2C)c1` [Example 17, (5R,7S)-1-(3-fluorophenyl)-7-methyl-8-[3-(4-methylpyridin-3-yl)benzyl]-2-thia-1,3,8-triazaspiro[4.5]decane 2,2-dioxide], the pIC50 (usually the IC50 on a negative log10 scale, so that one unit is a factor of ten) is 5.82.
With `CC(C)Oc1cccc(CN2CC[C@]3(CNS(=O)(=O)N3c3cccc(F)c3)C[C@@H]2C)n1` [Example 83, (5R,7S)-1-(3-fluorophenyl)-8-[(6-isopropoxypyridin-2-yl)methyl]-7-methyl-2-thia-1,3,8-triazaspiro[4.5]decane 2,2-dioxide] the figure was 3.99.
